Measured values as given in US9796724B2, “Substituted pyrazolo[1,5-a]pyrimidine compounds as Trk kinase inhibitors” (Array BioPharma, Inc., priority 2009, dated 2017).
pIC50: −log10 of the molar value.

Experiments:
[1] = target: TrkA (histidine-tagged recombinant human TrkA, cytoplasmic domain) (Homo sapiens (Human), UniProt P04629); experiment: TrkA ELISA assay; type: biochemical; conditions: Table 1, 500 μM ATP, read-out: TrkA Enzyme IC50
Procedure: An enzyme-linked immunosorbant assay (ELISA) was used to assess TrkA kinase activity in the presence of inhibitors. Immulon 4HBX 384-well microtiter plates (Thermo part #8755) were coated with a 0.025 mg/mL solution of poly (Glu, Ala, Tyr; 6:3:1; Sigma P3899). […] The assay buffer consisted of 25 mM MOPS pH 7.5, 0.005% (v/v) Triton X-100 and 5 mM MgCl2. The reaction mixture was removed from the plate by washing with PBS containing 0.1% (v/v) Tween 20. The phosphorylated reaction product was detected using 0.2 μg/mL of a phosphotyrosine specific monoclonal antibody (clone PY20) conjugated to horseradish peroxidase in conjunction with the TMB Peroxidase Substrate System (KPL). After the addition of 1M phosphoric acid, the chromogenic substrate color intensity was quantitated via absorbance at 450 nm.

Human Jak2 kinase domain = Human Jak2 kinase domain (Homo sapiens (Human), UniProt O60674); experiment: Jak2 inhibition assay (Omnia kinase assay); type: biochemical; conditions: Table 1; >1000 nM when >50% inhibition not observed at 1000 nM; read-out: Jak2 Enzyme IC50
Sequence of Human Jak2 kinase domain (O60674 808-1132): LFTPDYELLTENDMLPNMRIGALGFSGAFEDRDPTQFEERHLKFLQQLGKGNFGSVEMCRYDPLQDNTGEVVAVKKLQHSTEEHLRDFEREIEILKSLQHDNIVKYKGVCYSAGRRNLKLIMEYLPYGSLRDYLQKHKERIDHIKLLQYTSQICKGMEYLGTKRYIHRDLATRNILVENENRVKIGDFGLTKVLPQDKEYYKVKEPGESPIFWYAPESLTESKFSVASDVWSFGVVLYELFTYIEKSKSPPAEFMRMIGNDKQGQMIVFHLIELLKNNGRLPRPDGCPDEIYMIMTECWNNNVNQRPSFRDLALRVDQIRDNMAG
Description: The assays described in Examples C, D, E and F for the determination of JAK1, JAK2, JAK3 and Tyk2 kinase activity, respectively, utilized the Omnia® Kinase fluorescence peptide substrate-based technology (Invitrogen). The specific components of the assay mixture are described in Examples C, D and E. […] Two-μL aliquots of these were transferred to a fresh plate for a ten-fold intermediate dilution with assay buffer. […] Human Jak2 kinase domain comprising amino acids 808-1132 was purchased from Invitrogen Corporation, Carlsbad, Calif.

Sequence of TrkA (histidine-tagged recombinant human TrkA, cytoplasmic domain) (P04629 440-796): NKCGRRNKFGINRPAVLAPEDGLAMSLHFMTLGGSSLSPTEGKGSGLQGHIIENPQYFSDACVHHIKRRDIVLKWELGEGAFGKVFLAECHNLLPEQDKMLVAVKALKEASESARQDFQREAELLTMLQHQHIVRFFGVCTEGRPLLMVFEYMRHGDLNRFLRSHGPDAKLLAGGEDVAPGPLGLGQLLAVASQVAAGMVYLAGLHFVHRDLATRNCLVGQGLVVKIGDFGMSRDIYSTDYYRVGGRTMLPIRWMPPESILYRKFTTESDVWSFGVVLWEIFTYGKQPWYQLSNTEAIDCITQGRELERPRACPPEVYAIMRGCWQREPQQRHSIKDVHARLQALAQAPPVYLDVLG

pIC50 [1]	pIC50 (Human Jak2 kinase domain)	SMILES
7.94		O=C(NCCN1CCC(O)CC1)c1cnn2ccc(N3CCC[C@@H]3c3cc(F)ccc3F)nc12 [Example 170, 5-((R)-2-(2,5-difluorophenyl)pyrrolidin-1-yl)-N-(2-(4-hydroxypiperidin-1-yl)ethyl)pyrazolo[1,5-a]pyrimidine-3-carboxamide]
7.79	< 6.00	C[C@@H](O)[C@H](CO)NC(=O)c1cnn2ccc(N3CCC[C@@H]3c3cc(F)ccc3F)nc12 [Example 174, 5-((R)-2-(2,5-difluorophenyl)pyrrolidin-1-yl)-N-((2S,3R)-1,3-dihydroxybutan-2-yl)pyrazolo[1,5-a]pyrimidine-3-carboxamide]
7.91	< 6.00	C[C@H](O)[C@H](CO)NC(=O)c1cnn2ccc(N3CCC[C@@H]3c3cc(F)ccc3F)nc12 [Example 175, 5-((R)-2-(2,5-difluorophenyl)pyrrolidin-1-yl)-N-((2S,3S)-1,3-dihydroxybutan-2-yl)pyrazolo[1,5-a]pyrimidine-3-carboxamide]
7.57	< 6.00	C[C@H](O)[C@@H](CO)NC(=O)c1cnn2ccc(N3CCC[C@@H]3c3cc(F)ccc3F)nc12 [Example 176, 5-((R)-2-(2,5-difluorophenyl)pyrrolidin-1-yl)-N-((2R,3S)-1,3-dihydroxybutan-2-yl)pyrazolo[1,5-a]pyrimidine-3-carboxamide]
